Activity calls are given as the source filed them. The rule behind the calls is not given here.
Assay: Metal coordinating activity assessed as compound-copper coordination at 12.5 to 37.5 uM incubated for 0.5 to 1 hr in presence of 2.5 mM CuCl2 by UV-Visible spectrophotometric analysis
Assay type: functional

Q: Which Activity does the source give for COc1cc(C(C)C)c(C(=O)CSc2nnc(-c3ccccn3)o2)cc1C here?
A: inactive

Assay: Antioxidant activity assessed as reduction of Cu2+ in bis-neocuproine-Cu2+ complex to bis-neocuproine-Cu+ complex measured as trolox equivalent antioxidant capacity incubated for 30 mins by CUPRAC assay
Assay type: functional

Q: Which Ratio does the source give for COc1cc(C(C)C)c(C(=O)CSc2nc3ccccc3o2)cc1C here?
A: 1.47

Q: For COc1cc(C(C)C)c(C(=O)CSc2ccccc2)cc1C, which Ratio is on record?
A: 0.8

Q: With COc1cc(C(C)C)c(C(=O)CS(=O)(=O)c2ccccc2)cc1C as the compound, how does the Activity read?
A: inactive

Q: For COc1cc(C(C)C)c(C(=O)CSc2nnc(C)s2)cc1C, which Ratio is on record?
A: 1.73

Q: For COc1cc(C(C)C)c(C(=O)CSc2nnc(-c3ccccn3)o2)cc1C, which Ratio is on record?
A: 1.59

Q: Which Ratio does the source give for COc1cc(C(C)C)c(C(=O)CSc2ncnc3[nH]cnc23)cc1C here?
A: 1.32

Q: With COc1cc(C(C)C)c(C(=O)CSc2ccncc2)cc1C as the compound, how does the Ratio read?
A: 0.47

Q: With COc1cc(C(C)C)c(C(=O)CSc2nc3ccccc3s2)cc1C as the compound, how does the Ratio read?
A: 1.26

Q: With COc1cc(C(C)C)c(C(=O)CSc2nnc(-c3ccccc3)[nH]2)cc1C as the compound, how does the Ratio read?
A: 1.02

Q: Which Ratio does the source give for COc1cc(C(C)C)c(C(=O)CSc2nnc(N)[nH]2)cc1C here?
A: 1.62

Q: For O=C1O[C@H]([C@@H](O)CO)C(O)=C1O, which Ratio is on record?
A: 0.85

Q: For COc1cc(C(C)C)c(C(=O)CSc2nnc(-c3ccccc3)o2)cc1C, which Ratio is on record?
A: 1.34

Q: With COc1cc(C(C)C)c(C(=O)CSc2nnc(-c3ccncc3)o2)cc1C as the compound, how does the Ratio read?
A: 0.95

Q: With COc1cc(C(C)C)c(C(=O)CSc2nnc(-c3cccnc3)o2)cc1C as the compound, how does the Ratio read?
A: 0.68

Q: With COc1cc(C(C)C)c(C(=O)CSc2nnc(N)s2)cc1C as the compound, how does the Ratio read?
A: 1.4

Q: Which Ratio does the source give for Cc1ccc(C(C)C)cc1O here?
A: 0.87

Q: Which Ratio does the source give for COc1cc(C(C)C)c(C(=O)CSc2nc3ccccc3[nH]2)cc1C here?
A: 1.21

Q: Which Ratio does the source give for COc1cc(C(C)C)c(C(=O)CSc2ccccn2)cc1C here?
A: 0.59

Q: Which Ratio does the source give for COc1cc(C(C)C)c(C(=O)CSc2ncccn2)cc1C here?
A: 0.39
